Reference: publication PMC7619633, “Targeting of multiple tumor-associated antigens by individual T cell receptors during successful cancer immunotherapy” (Cell, 2023)

What was measured:
[1] = system: MEL5 and MEL8 TCRs, MM909.24 TIL; test: Recognition of the 9-mer BST2 peptide (MIP-1β ELISA and tetramer staining); type: cell-based, human; settings: Figures S7C–S7F
Description: In brief, tetramers were assembled by 5 consecutive 20 min incubations of PE or APC conjugated streptavidin (both from Life Technologies) with pMHC monomer at 1:4 molar ratio, on ice in the dark. Once assembled, 1:100 protease inhibitor (set 1, Merk, London, UK) and PBS was added to a working concentration of 0.1 mg mL^-1 (with regards to the pMHC component). Tetramers were stored at 4°C in the dark and used within 3 days of assembly. To remove aggregates, tetramers were centrifuged at full speed in a microfuge for 1 min immediately before staining samples. Tetramer staining was performed as previously described.[52],[53] Briefly, T cell clones, lines, TILs or Jurkat cells were pre-treated with 50 nM of the protein kinase inhibitor Dasatinib at 37°C for 10-30 min in 100 µL of FACS buffer (PBS with 2% FBS), followed by the addition of 0.5 µg tetramer (with respect to pMHC component) without washing or pre-chilling, and incubated for 30 min on ice and in the dark. Cells were then washed in PBS and stained with VIVID for 5 mins at room temperature. […]
T cells were ‘rested’ overnight in R5 medium (R10 but with 5% FBS) to help reduce spontaneous release of chemokines and cytokines. […] T cell activation towards peptide was determined by MIP-1β release, and for cancer or healthy cell targets it was determined by TNF release. […]

MM909.15 TIL = test: HLA A*03:01-TAG tetramer staining of TIL from patient MM909.15; type: binding, human
Description: (§1) Staining was performed in 5 mL polystyrene test tubes (1 wash per step) or 96U well plates (3 washes per step), using 0.5-1 x10^5 cells per sample. Dead cells were detected with 2 µL of a 1:40 PBS dilution of LIVE/DEAD® Fixable Violet Dead Stain Kit (VIVID). Samples were acquired on a BD FACSCanto II (BD Biosciences, Franklin Lakes, NJ, USA) or ACEA NovoCyte 3005 with NovoSampler pro (ACEA Biosciences, Agilent, CA, US), then analyzed with FlowJo software (Tree Star Inc., Ashland, Oregon, US). Cells were gated on FSC-A versus SSC-A, single cells (FSC-A versus FSC-H), then viable cells (marker of choice versus VIVID). Cell sorting was performed on a BD FACS Aria III (BD Biosciences) by Central Biotechnology Services at Cardiff University. T cells for TCR sequencing were captured in RLT lysis buffer supplemented with 40 mM DTT or RNAprotect reagent (both from Qiagen). T cells or established cell lines sorted for culture were collected in their respective culture media supplemented with 25 µg mL^-1 of Amphotericin B (Thermo Fisher Scientific) and 10 µg mL^-1 of Ciprofloxacin (Ciproxin, Bayer, Leverkusen, Germany).
(§2) Monomeric pMHC were generated in house as described below and used to assemble tetramers as previously described.[52] […]

MM909.11 TIL = test: HLA A*03:01-TAG tetramer staining of TIL from patient MM909.11; type: binding, human
Description: as §1, §2

Sequence	Recognition by TCRs of this study [1]	% of TIL stained with TAG tetramer (MM909.15 TIL; HLA A*03:01-RLSNRLLLR tetramer, MM909.15 TIL (passage-2), Fig S4N) [%]	TAG T cells as share of the anti-melanoma response of the TIL (MM909.15 TIL; MM909.15, from % tetramer+ cells and TIL reactivity toward autologous melanoma) [%]	% of TIL stained with TAG tetramer (MM909.11 TIL; HLA A*03:01-RLSNRLLLR tetramer, MM909.11 TIL (passage-2), Fig S4N) [%]	TAG T cells as share of the anti-melanoma response of the TIL (MM909.11 TIL; MM909.11, from % tetramer+ cells and TIL reactivity toward autologous melanoma) [%]
LLLGIGILV [BST2_9, previously described 9-mer BST2 peptide]	not recognized				
RLSNRLLLR [TAG, HLA A*03:01-restricted peptide from cancer/testis tumor antigen gene (TAG); peptide and tetramer]		0.05	1.1	0.67	17.5
